What is called IC50 is the concentration needed to halve the response being measured.

From patent publication US20110105474A1, “HETEROCYCLIC DERIVATIVES AS HDAC INHIBITORS” (DAC S.r.l., priority 2008, published 2011) come the findings set out here.

Holding throughout (type): cell-based
One test relates to K562 cells. Description: Cell growth, CellTiter-Glo Luminescent Cell Viability Assay, K562. The following applies: Homo sapiens, 72 h incubation. The source says:
(§1) CellTiter-Glo® Luminescent Cell Viability Assay (Promega) is a homogeneous method of determining the number of viable cells in culture based on quantitation of the present ATP, which indicates the presence of metabolically active cells. The homogeneous assay procedure involves addition of a single reagent (CellTiter-Glo®Reagent) directly to the cells, which leads to cell lysis and generation of a luminescent signal proportional to the amount of the ATP and the number of cells present in culture. The assay relies on the properties of a proprietary thermostable luciferase (Ultra-Glo® recombinant luciferase), which generates a luminescent signal.
(§2) K562, A549 and HCT-116 cells, in exponential growth, were incubated for 72 h with different concentrations of the inhibitors. After 72 h, a volume of CellTiter-Glo® Reagent equal to the volume of cell culture medium was added. The content was mixed for 2 min to induce cell lysis. The luminescence was recorded after further 10 min at RT in order to obtain a stabilized luminescent signal.
(§3) The IC50 was calculated using GraphPad Software.
(§4) IC50 results were allocated to one of 3 ranges as follows: Range A: IC50≦1.0 μM; Range B: from 1.0 to 3.0 μM; Range C: IC50≧3.0 μM.
(In general: In ATP-based viability assays light output follows the ATP content of the culture.)

The subject of a further test is A549 cells. Put plainly: Cell growth, CellTiter-Glo Luminescent Cell Viability Assay, A549. The conditions noted are these: Homo sapiens, 72 h incubation.
Source text: as §1, §2, §3, §4

A further test relates to HCT-116 cells. Put plainly: Cell growth, CellTiter-Glo Luminescent Cell Viability Assay, HCT-116. The following applies: Homo sapiens, 72 h incubation, read-out: IC50 HCT116.
Source text: as §1, §2, §3, §4

Counter-ions that a name gives are not always drawn. Where only a bound is given, the exact number is not on record here.

For `O=C(/C=C/c1cccc(/C=C/C(=O)N2CCCC(c3ccccc3)C2)n1)NO` (racemic) [Example 25, (±)-(E)-N-Hydroxy-3-{6-[(E)-3-oxo-3-(3-phenyl-piperidin-1-yl)-propenyl]-pyridin-2-yl}-acrylamide hydrochloride], the IC50 in the test on K562 cells, in the test on A549 cells and in the test with HCT-116 cells was no more than 1000 nM in each case.
As to `O=C(/C=C/c1cccc(/C=C/C(=O)N2CCNC(c3ccccc3)C2)n1)NO` (racemic) [Example 33, (±)-(E)-N-Hydroxy-3-{6-[(E)-3-oxo-3-(3-phenyl-piperazin-1-yl)-propenyl]-pyridin-2-yl}-acrylamide hydrochloride], the IC50 with K562 cells was 1000 to 3000 nM; with A549 cells it was no less than 3000 nM; in the test with HCT-116 cells it was 1000 to 3000 nM.
On to `Cc1ccccc1C1CCCN(C(=O)/C=C/c2cccc(/C=C/C(=O)NO)n2)C1` (racemic) [Example 42, (±)-(E)-N-Hydroxy-3-{6-[(E)-3-oxo-3-(3-o-tolyl-piperidin-1-yl)-propenyl]-pyridin-2-yl}-acrylamide hydrochloride], for which the IC50 in the test with K562 cells is no more than 1000 nM; in the test on A549 cells, no more than 1000 nM; in the test on HCT-116 cells, 1000 to 3000 nM.
For `Cc1cccc(C2CCCN(C(=O)/C=C/c3cccc(/C=C/C(=O)NO)n3)C2)c1` (racemic) [Example 43, (±)-(E)-N-Hydroxy-3-{6-[(E)-3-oxo-3-(3-m-tolyl-piperidin-1-yl)-propenyl]-pyridin-2-yl}-acrylamide hydrochloride], the IC50 in the test on K562 cells, in the test on A549 cells and with HCT-116 cells was no more than 1000 nM each time.
With `O=C(/C=C/c1cccc(/C=C/C(=O)N2CCCC(c3cccc4ccccc34)C2)n1)NO` (racemic) [Example 44, (±)-(E)-N-Hydroxy-3-{6-[(E)-3-(3-naphthalen-1-yl-piperidin-1-yl)-3-oxo-propenyl]-pyridin-2-yl}-acrylamide hydrochloride], the 50% inhibitory concentration (IC50) in the test on K562 cells is no more than 1000 nM; in the test with A549 cells, 1000 to 3000 nM; in the test on HCT-116 cells, no more than 1000 nM.
As to `Cc1ccc(C2CCCN(C(=O)/C=C/c3cccc(/C=C/C(=O)NO)n3)C2)cc1` (racemic) [Example 46, (±)-(E)-N-Hydroxy-3-{6-[(E)-3-oxo-3-(3-p-tolyl-piperidin-1-yl)-propenyl]-pyridin-2-yl}-acrylamide hydrochloride], the concentration for half-maximal inhibition (IC50) was no more than 1000 nM in the test on K562 cells, 1000 to 3000 nM in the test with A549 cells and no more than 1000 nM in the test on HCT-116 cells.
`O=C(/C=C/c1cccc(/C=C/C(=O)N2CCCC(c3ccc4ccccc4c3)C2)n1)NO` (racemic) [Example 47, (±)-(E)-N-Hydroxy-3-{6-[(E)-3-(3-naphthalen-2-yl-piperidin-1-yl)-3-oxo-propenyl]-pyridin-2-yl}-acrylamide hydrochloride]: the IC50 with K562 cells, in the test on A549 cells and with HCT-116 cells was no more than 1000 nM throughout.
As for `O=C(/C=C/c1cccc(/C=C/C(=O)N2CCCC(c3ccc(F)cc3)C2)n1)NO` (racemic) [Example 48, (±)-(E)-3-(6-{(E)-3-[3-(4-Fluoro-phenyl)-piperidin-1-yl]-3-oxo-propenyl}-pyridin-2-yl)-N-hydroxy-acrylamide hydrochloride], the IC50 was no more than 1000 nM in the test with K562 cells, 1000 to 3000 nM in the test with A549 cells and no more than 1000 nM with HCT-116 cells.
Take `O=C(/C=C/c1cccc(/C=C/C(=O)N2CCC(c3ccccc3)C2)n1)NO` (racemic) [Example 52, (±)-(E)-N-Hydroxy-3-{6-[(E)-3-oxo-3-(3-phenyl-pyrrolidin-1-yl)-propenyl]-pyridin-2-yl}-acrylamide hydrochloride]: the half-maximal inhibitory concentration (IC50) in the test on K562 cells is 1000 to 3000 nM; in the test on A549 cells, no less than 3000 nM; in the test with HCT-116 cells, 1000 to 3000 nM.
Turning to `O=C(/C=C/c1cccc(/C=C/C(=O)N2CCCCC2c2ccccc2)n1)NO` (racemic) [Example 53, (±)-(E)-N-Hydroxy-3-{6-[(E)-3-oxo-3-(2-phenyl-piperidin-1-yl)-propenyl]-pyridin-2-yl}-acrylamide hydrochloride], the values for the half-maximal inhibitory concentration (IC50) with K562 cells, in the test on A549 cells and in the test on HCT-116 cells were no more than 1000 nM, 1000 to 3000 nM and no more than 1000 nM, respectively.
As for `O=C(/C=C/c1cccc(/C=C/C(=O)N2CCCC(c3ccccc3)CC2)n1)NO` (racemic) [Example 54, (±)-(E)-N-Hydroxy-3-{6-[(E)-3-oxo-3-(4-phenyl-azepan-1-yl)-propenyl]-pyridin-2-yl}-acrylamide hydrochloride], the 50% inhibitory concentration (IC50) with K562 cells was no more than 1000 nM; with A549 cells it was 1000 to 3000 nM; with HCT-116 cells, no more than 1000 nM.
Take `CN1CCN(C(=O)/C=C/c2cccc(/C=C/C(=O)NO)n2)CC1c1ccccc1` (racemic) [Example 63, (±)-(E)-N-Hydroxy-3-{6-[(E)-3-(4-methyl-3-phenyl-piperazin-1-yl)-3-oxo-propenyl]-pyridin-2-yl}-acrylamide hydrochloride]: the IC50 with K562 cells was no more than 1000 nM; in the test on A549 cells it was 1000 to 3000 nM; with HCT-116 cells, no more than 1000 nM.
As for `CCN1CCN(C(=O)/C=C/c2cccc(/C=C/C(=O)NO)n2)CC1c1ccccc1` (racemic) [Example 64, (±)-(E)-3-{6-[(E)-3-(4-Ethyl-3-phenyl-piperazin-1-yl)-3-oxo-propenyl]-pyridin-2-yl}-N-hydroxy-acrylamide hydrochloride], the concentration for half-maximal inhibition (IC50) in the test with K562 cells, in the test with A549 cells and in the test with HCT-116 cells was no more than 1000 nM throughout.
In the case of `O=C(/C=C/c1cccc(/C=C/C(=O)N2CCN(Cc3ccccc3)C(c3ccccc3)C2)n1)NO` (racemic) [Example 65, (±)-(E)-3-{6-[(E)-3-(4-Benzyl-3-phenyl-piperazin-1-yl)-3-oxo-propenyl]-pyridin-2-yl}-N-hydroxy-acrylamide hydrochloride], the IC50 in the test with K562 cells, with A549 cells and in the test on HCT-116 cells was 1000 to 3000 nM each time.
On to `CC(=O)N1CCN(C(=O)/C=C/c2cccc(/C=C/C(=O)NO)n2)CC1c1ccccc1` (racemic) [Example 66, (±)-(E)-3-{6-[(E)-3-(4-Acetyl-3-phenyl-piperazin-1-yl)-3-oxo-propenyl]-pyridin-2-yl}-N-hydroxy-acrylamide hydrochloride], for which the IC50 in the test on K562 cells, in the test with A549 cells and with HCT-116 cells was no less than 3000 nM in each case.
Turning to `COc1ccccc1C1CCCN(C(=O)/C=C/c2cccc(/C=C/C(=O)NO)n2)C1` (racemic) [Example 67, (±)-(E)-N-Hydroxy-3-(6-{(E)-3-[3-(2-methoxy-phenyl)-piperidin-1-yl]-3-oxo-propenyl}-pyridin-2-yl)-acrylamide hydrochloride], the IC50 with K562 cells is no more than 1000 nM; in the test with A549 cells it was 1000 to 3000 nM; with HCT-116 cells it was no more than 1000 nM.
On to `COc1cccc(C2CCCN(C(=O)/C=C/c3cccc(/C=C/C(=O)NO)n3)C2)c1` (racemic) [Example 68, (±)-(E)-N-Hydroxy-3-(6-{(E)-3-[3-(3-methoxy-phenyl)-piperidin-1-yl]-3-oxo-propenyl}-pyridin-2-yl)-acrylamide hydrochloride], for which the IC50 in the test on K562 cells, in the test with A549 cells and with HCT-116 cells was no more than 1000 nM each time.
Take `COc1ccc(C2CCCN(C(=O)/C=C/c3cccc(/C=C/C(=O)NO)n3)C2)cc1` (racemic) [Example 69, (±)-(E)-N-Hydroxy-3-(6-{(E)-3-[3-(4-methoxy-phenyl)-piperidin-1-yl]-3-oxo-propenyl}-pyridin-2-yl)-acrylamide hydrochloride]: the IC50 with K562 cells, with A549 cells and in the test on HCT-116 cells was no more than 1000 nM throughout.
On to `O=C(/C=C/c1cccc(/C=C/C(=O)N2CCCC(c3ccccc3C(F)(F)F)C2)n1)NO` (racemic) [Example 70, (±)-(E)-N-Hydroxy-3-(6-{(E)-3-oxo-3-[3-(2-trifluoromethyl-phenyl)-piperidin-1-yl]-propenyl}-pyridin-2-yl)-acrylamide hydrochloride], for which the concentration for half-maximal inhibition (IC50) in the test on K562 cells, in the test on A549 cells and in the test on HCT-116 cells was no more than 1000 nM throughout.
Consider `O=C(/C=C/c1cccc(/C=C/C(=O)N2CCCC(c3cccc(C(F)(F)F)c3)C2)n1)NO` (racemic) [Example 71, (±)-(E)-N-Hydroxy-3-(6-{(E)-3-oxo-3-[3-(3-trifluoromethyl-phenyl)-piperidin-1-yl]-propenyl}-pyridin-2-yl)-acrylamide hydrochloride], for which the figures for the IC50 in the test with K562 cells, in the test on A549 cells and in the test with HCT-116 cells were no more than 1000 nM, 1000 to 3000 nM and no more than 1000 nM, respectively.
As for `O=C(/C=C/c1cccc(/C=C/C(=O)N2CCCC(c3ccc(C(F)(F)F)cc3)C2)n1)NO` (racemic) [Example 72, (±)-(E)-N-Hydroxy-3-(6-{(E)-3-oxo-3-[3-(4-trifluoromethyl-phenyl)-piperidin-1-yl]-propenyl}-pyridin-2-yl)-acrylamide hydrochloride], the figures for the IC50 with K562 cells, in the test with A549 cells and with HCT-116 cells were no more than 1000 nM, 1000 to 3000 nM and 1000 to 3000 nM, respectively.
With `Cc1cccc(C2CCCN(C(=O)/C=C/c3cccc(/C=C/C(=O)NO)c3)C2)c1` (racemic) [Example 78, (±)-(E)-N-Hydroxy-3-{3-[(E)-3-oxo-3-(3-m-tolyl-piperidin-1-yl)-propenyl]-phenyl}-acrylamide], the IC50 in the test on K562 cells, in the test on A549 cells and in the test with HCT-116 cells was no less than 3000 nM in each case.
For `Cc1ccccc1C1CCCN(C(=O)/C=C/c2cccc(/C=C/C(=O)NO)c2)C1` (racemic) [Example 79, (±)-(E)-N-Hydroxy-3-{3-[(E)-3-oxo-3-(3-o-tolyl-piperidin-1-yl)-propenyl]-phenyl}-acrylamide], the half-inhibitory concentration (IC50) with K562 cells, in the test on A549 cells and in the test with HCT-116 cells was no less than 3000 nM in each case.
